Experimental data reported in US20040087539A1, “Method of treating conditions related to platelet activity” (priority 2003, published 2004).

Key:
[1] = system: platelets; assay: Ristocetin-induced vWF-dependent platelet aggregation in platelet-rich plasma; format: cell-based, human
Protocol: (§1) Fresh blood from healthy volunteers was anticoagulated with 1/7 volume of ACD (2.5% trisodium citrate, 2% dextrose and 1.5% citric acid). Platelets were washed with CGS buffer (sodium chloride 0.12 M, trisodium citrate 0.0129 M and d-glucose 0.03 M, pH 6.5), resuspended in modified Tyrode's solution and allowed to incubate at 22° C. for 1 hours as previously described. In experiments using platelet-rich plasma (PRP), 1/10 volume of 3.8% trisodium citrate was used as anticoagulant. Platelet aggregation was measured using a turbidometric platelet aggregometer (Chrono-Log) at 37° C. vWF-dependent platelet aggregation was induced by addition of ristocetin or botrocetin to PRP. To differentiate CPIb-IX-mediated platelet agglutination from the second wave of integrin-dependent platelet aggregation, final concentrations of ristocetin were adjusted in each experiment to achieve a two-wave curve of aggregation. Washed platelets were used in platelet aggregation induced by a-thrombin (Enzyme Research Laboratories). To examine the effects of PKG, 100 μM of membrane permeable cGMP analogs, 8-bromo-cGMP or 8-dibutyl-cGMP (Calbiochem), or 1 μM sildenafil citrate (Pfizer) and added simultaneously with subthreshold concentrations of agonists. PKG inhibitors KT5823 (2 pM) and Rp-8PCPT-cGMP (0.2 mM) were preincubated with platelets at 37° C. for 5 minutes before addition of agonists.
In FIG. 3A, platelet rich-plasma (PRP) was preincubated at 37° C. for 5 mm with PKG inhibitors KT5823 (2 pM) or Rp-8pCPT-cGMP (0.2 μM). PRP was also incubated with DMSO (vehicle for KT5823), a PKA inhibitor, KT5720 (2 pM), or buffer (Control). The vWF modulator, ristocetin, was then added to induce vWF-GPIb-IX interaction. […] In FIG. 3B, a subthreshold concentration of ristocetin was added to PRP immediately followed by addition of 8-bromo-cGMP or buffer (Control). PRP also was preincubated with integrin inhibitor RGDS before adding ristocetin and 8-bromo-cGMP. In FIG. 3C, platelets were preincubated with or without PKG inhibitor KT5823, then allowed to spread on vWF-coated glass chamber slides. Platelets were stained with an anti-GPIb antibody, and fluorescein-labeled secondary antibody. The slides were imaged under a confocal microscope (magnification =630×).
(§2) In FIG. 6A, increasing concentrations of sildenafil or control 0.15 M NaCl solution were added to platelet-rich plasma followed by a subthreshold concentration of ristocetin. Platelet aggregation was recorded using a platelet aggregometer. In FIG. 6B, sildenafil or control buffer was added to washed platelets followed by addition of subthreshold doses of thrombin to induce platelet aggregation. It was noted that platelet aggregation occurs in the presence of sildenafil. The figure includes the representative results of at least three experiments.
(§3) In FIG. 7A, PRP was preincubated with 0.1 mM 8-bromo-cGMP for increasing lengths of time at 37° C. as indicated. The vWF modulator, ristocetin (1.25 mg/ml), then was added to induce platelet aggregation in a turbidometric platelet aggregometer. In FIG. 7B, PRP was preincubated with a high concentration of 8-bromo-cGMP (1 mM) for 5 minutes. Ristocetin then was added to induce platelet aggregation. In FIGS. 7C and 7D, washed platelets in modified Tyrode's solution were preincubated with 1 mM 8-bromo-cGMP (C), or various concentrations of 8-pCPT-cGMP (D) at 37° C. for 5 minutes. Thrombin (0.05 u/ml) then was added to induce platelet aggregation.

[2] = system: platelets; assay: Low-dose α-thrombin-induced aggregation of washed platelets; format: cell-based, human
Protocol: as §1
In FIG. 5A, washed platelets were preincubated with 40 pg/mi anti-GPIba monoclonal antibody SZ2, integrin inhibitor RGDS, or inhibitors of PKG, KT5823 (2 μM) or Rp-8pCPT-cGMP (0.2 mM) (Calbiochem), for 5 min. Platelets also were preincubated with DMSO (vehicle for KT5823), KT5720 or buffer (Control) as controls. α-Thrombin (0.05 units/mi) then was added to induce platelet aggregation. Nonspecific JgG and RGES peptides also were examined as additional controls, but had no effect (not shown). In FIG. 5B, a subthreshold dose of thrombin was added to platelets immediately followed by addition of PKG activator 8-bromo-cGMP or buffer (Control). Shown in the figure are the representative results of at least three experiments.
as §2, §3

`Nc1nc2c(nc(Br)n2[C@@H]2O[C@@H]3COP(=O)(O)O[C@H]3[C@H]2O)c(=O)[nH]1` [8-bromo-cGMP] was tested, and the “preincubation time required to inhibit platelets” value ([1]; 1 mM 8-bromo-cGMP, FIGS. 7B, 7C) was “less than 5 minutes”, the “preincubation time after which the inhibitory effect on platelet aggregation becomes significant” value ([1]; 8-bromo-cGMP 100 μM (0.1 mM), PRP, 37° C., ristocetin 1.25 mg/ml, FIG. 7A) was 10 min and the “GPIb-IX-dependent platelet activation, agent added simultaneously with ristocetin” value ([1]; 8-bromo-cGMP 100 μM, FIG. 7A) was “promoted”. For the same compound, the “platelet aggregation together with a subthreshold concentration of ristocetin” value ([1]; PRP, agent added with subthreshold ristocetin (1 mg/mm [sic]) (or botrocetin), FIGS. 3B, 6A) was “induced integrin-dependent platelet aggregation”, the “preincubation time required for a slight inhibitory effect” value ([1]; in some experiments, not shown) was 30 min and the “GPIb-IX-dependent platelet activation, agent added simultaneously with thrombin” value ([2]; 8-bromo-cGMP 100 μM, FIG. 5) was “promoted”. The “platelet aggregation together with a subthreshold concentration of thrombin” value ([2]; washed platelets, thrombin 0.02 units/ml, FIGS. 5B, 6B) was “induced platelet aggregation”.
